In brackets after ≈: the same amount, converted by molar mass.
Assays:
Format in all cases: cell-based
[1] = system: Staphylococcus aureus MSSA 476; test: MIC, Staphylococcus panel (Table I-2); settings: 18 h, 4% DMSO
Description: (§1) We used the previously described protocol, with subtle modifications. The microdilution method recommended by the Clinical and Laboratory Standard Institute [M07-A9, Vol. 32, N^o 2] was used. The activity of bis-indolic compounds was tested against 35 bacterial strains belonging to 12 different Staphylococcus species.
(§2) Bacterial inocula were prepared in Mueller Hinton broth (MH2, BioMerieux, Marcy L'Etoile, France). They were dispensed in 96 well microtiter plates (5×10^5 CFU/ml of final inoculum, 192 μL per well). Indolic compounds diluted in pure DMSO (8 μL per well, concentrated 25 times) were added to the wells as to obtain two-fold serial concentrations (0.5-32 mg/L of final concentrations). The final concentration of DMSO was 4% in each well.
(§3) To avoid cross-contaminations in microtiter plates, one row was left blank between each strain tested. Microplates were incubated for 18 h at 37° C. in ambient air or at 37° C. in 5% CO2 enriched atmosphere for fastidious species. Then MICs were read visually and, in case of visual reading difficulties, confirmed using a spectrophotometer at a wavelength of 630 nm (BioTek® EL808 Absorbance Microplate Reader). MICs corresponded to the minimum bis-indolic compound concentration that allowed complete visual growth inhibition of bacteria. Drug-free cultures served as growth controls.
(§4) We used four Staphylococcus aureus strains. Two reference strains were provided by the French reference center for Staphylococcus spp. (Lyon, France), including one methicillin-susceptible (MSSA 476) and one methicillin-resistant (MRSA 252) S. aureus strains. The two remaining S. aureus strains were purchased from the CRBIP (Centre de Ressources Biologiques de l'Institut Pasteur): a vancomycin-intermediate strain (ATCC 106414) and a S. aureus strain (SA-1199B) resistant to fluoroquinolones due to overexpression of the NorA multidrug efflux pump.

[2] = system: Staphylococcus aureus ATCC 106414 (VISA); test: MIC, Staphylococcus panel (Table I-2); settings: 18 h, 4% DMSO
Description: as §1, §2, §3, §4

[3] = system: Staphylococcus aureus MRSA 252; test: MIC, Staphylococcus panel (Table I-2); settings: 18 h, 4% DMSO
Description: as §1, §2, §3, §4

[4] = system: Staphylococcus aureus SA-1199B (NorA); test: MIC, Staphylococcus panel (Table I-2); settings: 18 h
Description: as §1, §2, §3, §4

[5] = system: HCT116 (human colon tumor); test: In vitro cytotoxicity; settings: HCT-116, HCT116, in DMSO, duplicate
[6] = system: Staphylococcus hominis (CHUG-Shom1); test: MIC, Staphylococcus panel (Table I-2); settings: 18 h, 4% DMSO
Description: as §1, §2, §3
(§5) Coagulase-negative Staphylococcus strains included three reference strains purchased from CRBIP: a methicillin-susceptible S. epidermidis strain (ATCC 12228), a methicillin-resistant S. epidermidis strain (ATCC 49461), and a methicillin-susceptible S. sciuri strain (ATCC 29061). We also used clinical strains belonging to the following coagulase-negative Staphylococcus species: S. auricularis (two strains), S. warneri (five strains), S. capitis (five strains), S. haemolyticus (four strains), S. hominis (seven strains), S. cohnii (two strains), and S. saprophyticus, S. caprae and S. simulans (one strain each). Identification of the clinical strains was obtained using VITEK® 2 System (Biomérieux).

[7] = system: Staphylococcus capitis (CHUG-Scap5); test: MIC, Staphylococcus panel (Table I-2); settings: 18 h, 4% DMSO
Description: as §1, §2, §3, §5

[8] = system: Staphylococcus haemolyticus (CHUG-Scap5); test: MIC, Staphylococcus panel (Table I-2); settings: 18 h, 4% DMSO
Description: as §1, §2, §3, §5

[9] = system: Staphylococcus warneri (CHUG-Swar4); test: MIC, Staphylococcus panel (Table I-2); settings: 18 h, 4% DMSO
Description: as §1, §2, §3, §5

[10] = system: Staphylococcus hominis (CHUG-Shom4); test: MIC, Staphylococcus panel (Table I-2); settings: 18 h, 4% DMSO
Description: as §1, §2, §3, §5

[11] = system: Staphylococcus capitis (CHUG-Scap1); test: MIC, Staphylococcus panel (Table I-2); settings: 18 h, 4% DMSO
Description: as §1, §2, §3, §5

[12] = system: Staphylococcus capitis (CHUG-Scap4); test: MIC, Staphylococcus panel (Table I-2); settings: 18 h, 4% DMSO
Description: as §1, §2, §3, §5

[13] = system: Staphylococcus haemolyticus (CHUG-Scap6); test: MIC, Staphylococcus panel (Table I-2); settings: 18 h, 4% DMSO
Description: as §1, §2, §3, §5

[14] = system: Staphylococcus hominis (CHUG-Shom5); test: MIC, Staphylococcus panel (Table I-2); settings: 18 h, 4% DMSO
Description: as §1, §2, §3, §5

[15] = system: Staphylococcus auricularis (CHUG-Saur1); test: MIC, Staphylococcus panel (Table I-2); settings: 18 h, 4% DMSO
Description: as §1, §2, §3, §5

[16] = system: Staphylococcus hominis (CHUG-Shom3); test: MIC, Staphylococcus panel (Table I-2); settings: 18 h, 4% DMSO
Description: as §1, §2, §3, §5

[17] = system: Staphylococcus cohnii (CHUG-Scoh2); test: MIC, Staphylococcus panel (Table I-2); settings: 18 h, 4% DMSO
Description: as §1, §2, §3, §5

[18] = system: Staphylococcus cohnii (CHUG-Scoh1) (MRSA); test: MIC, Staphylococcus panel (Table I-2); settings: 18 h, 4% DMSO
Description: as §1, §2, §3, §5

[19] = system: Staphylococcus capitis (CHUG-Scap7); test: MIC, Staphylococcus panel (Table I-2); settings: 18 h, 4% DMSO
Description: as §1, §2, §3, §5

[20] = system: Staphylococcus haemolyticus (CHUG-Scap4); test: MIC, Staphylococcus panel (Table I-2); settings: 18 h, 4% DMSO
Description: as §1, §2, §3, §5

[21] = system: Staphylococcus warneri (CHUG-Swar1); test: MIC, Staphylococcus panel (Table I-2); settings: 18 h, 4% DMSO
Description: as §1, §2, §3, §5

[22] = system: Staphylococcus haemolyticus (CHUG-Shae1); test: MIC, Staphylococcus panel (Table I-2); settings: 18 h, 4% DMSO
Description: as §1, §2, §3, §5

[23] = system: Staphylococcus caprae (CHUG-Scapra1); test: MIC, Staphylococcus panel (Table I-2); settings: 18 h, 4% DMSO
Description: as §1, §2, §3, §5

[24] = system: Staphylococcus warneri (CHUG-Swar5); test: MIC, Staphylococcus panel (Table I-2); settings: 18 h, 4% DMSO
Description: as §1, §2, §3, §5

[25] = system: Staphylococcus epidermidis ATCC 12228; test: MIC, Staphylococcus panel (Table I-2); settings: ATCC12228, 18 h, 4% DMSO
Description: as §1, §2, §3, §5

[26] = system: Staphylococcus simulans (CHUG-Ssim1); test: MIC, Staphylococcus panel (Table I-2); settings: 18 h, 4% DMSO
Description: as §1, §2, §3, §5

[27] = system: Staphylococcus epidermidis ATCC 49461; test: MIC, Staphylococcus panel (Table I-2); settings: ATCC49461, 18 h, 4% DMSO
Description: as §1, §2, §3, §5

[28] = system: Staphylococcus capitis (CHUG-Scap6); test: MIC, Staphylococcus panel (Table I-2); settings: 18 h, 4% DMSO
Description: as §1, §2, §3, §5

[29] = system: Staphylococcus sciuri ATCC 29061; test: MIC, Staphylococcus panel (Table I-2); settings: Mammaliicoccus sciuri, ATCC29061, 18 h, 4% DMSO
Description: as §1, §2, §3, §5

[30] = system: Staphylococcus warneri (CHUG-Swar7); test: MIC, Staphylococcus panel (Table I-2); settings: 18 h, 4% DMSO
Description: as §1, §2, §3, §5

[31] = system: Staphylococcus saprophyticus (CHUG-Ssap2); test: MIC, Staphylococcus panel (Table I-2); settings: 18 h, 4% DMSO
Description: as §1, §2, §3, §5

SMILES | MIC [1] | MIC [2] | MIC [3] | MIC [4] | IC50 [5] | MIC [6] | MIC [7] | MIC [8] | MIC [9] | MIC [10] | MIC [11] | MIC [12] | MIC [13] | MIC [14] | MIC [15] | MIC [16] | MIC [17] | MIC [18] | MIC [19] | MIC [20] | also measured
CC(NC(=O)C(=O)c1c[nH]c2ccc(Br)cc12)c1c[nH]c2ccc(Br)cc12 (centres unmarked) [Compound 5, 2-(5-Bromo-1H-indol-3-yl)-N-(1-(5-bromo-1H-indol-3-yl)ethyl)-2-oxoacetamide] | 2 µg/mL (≈ 4.09 µM) | 1 µg/mL (≈ 2.04 µM) | 2 µg/mL (≈ 4.09 µM) | 2 µg/mL (≈ 4.09 µM) | 10.1 µM | 4 µg/mL (≈ 8.18 µM) | 2 µg/mL (≈ 4.09 µM) | 4 µg/mL (≈ 8.18 µM) | 2 µg/mL (≈ 4.09 µM) | 2 µg/mL (≈ 4.09 µM) | 2 µg/mL (≈ 4.09 µM) | 1 µg/mL (≈ 2.04 µM) | 4 µg/mL (≈ 8.18 µM) | 1 µg/mL (≈ 2.04 µM) | 1 µg/mL (≈ 2.04 µM) | 2 µg/mL (≈ 4.09 µM) | 2 µg/mL (≈ 4.09 µM) | 2 µg/mL (≈ 4.09 µM) | 2 µg/mL (≈ 4.09 µM) | 4 µg/mL (≈ 8.18 µM) | MIC [21]: 2 µg/mL (≈ 4.09 µM); MIC [22]: 4 µg/mL (≈ 8.18 µM); MIC [23]: 2 µg/mL (≈ 4.09 µM); MIC [24]: 1 µg/mL (≈ 2.04 µM); MIC [25]: 2 µg/mL (≈ 4.09 µM); MIC [26]: 2 µg/mL (≈ 4.09 µM); MIC [27]: 2 µg/mL (≈ 4.09 µM); MIC [28]: 1 µg/mL (≈ 2.04 µM); MIC [29]: 4 µg/mL (≈ 8.18 µM); MIC [30]: 2 µg/mL (≈ 4.09 µM); MIC [31]: 2 µg/mL (≈ 4.09 µM)
CC(C)(C)OC(=O)NCC(NC(=O)C(=O)c1c[nH]c2ccc(Br)cc12)c1c[nH]c2ccc(Br)cc12 (centres unmarked) [Compound 4, tert-Butyl(2-(5-bromo-1H-indol-3-yl)-2-(2-(5-bromo-1H-indol-3-yl)-2-oxoacetamido)ethyl) carbamate] | 1 µg/mL (≈ 1.65 µM) | 1 µg/mL (≈ 1.65 µM) | 1 µg/mL (≈ 1.65 µM) | 1 µg/mL (≈ 1.65 µM) | 4.55 µM | 2 µg/mL (≈ 3.31 µM) | 1 µg/mL (≈ 1.65 µM) | 1 µg/mL (≈ 1.65 µM) | 1 µg/mL (≈ 1.65 µM) | 1 µg/mL (≈ 1.65 µM) | 1 µg/mL (≈ 1.65 µM) | 1 µg/mL (≈ 1.65 µM) | 2 µg/mL (≈ 3.31 µM) | 1 µg/mL (≈ 1.65 µM) | 1 µg/mL (≈ 1.65 µM) | 1 µg/mL (≈ 1.65 µM) | 2 µg/mL (≈ 3.31 µM) | 1 µg/mL (≈ 1.65 µM) | 1 µg/mL (≈ 1.65 µM) | 2 µg/mL (≈ 3.31 µM) | MIC [21]: 1 µg/mL (≈ 1.65 µM); MIC [22]: 1 µg/mL (≈ 1.65 µM); MIC [23]: 1 µg/mL (≈ 1.65 µM); MIC [24]: 1 µg/mL (≈ 1.65 µM); MIC [25]: 1 µg/mL (≈ 1.65 µM); MIC [26]: 1 µg/mL (≈ 1.65 µM); MIC [27]: 1 µg/mL (≈ 1.65 µM); MIC [28]: 1 µg/mL (≈ 1.65 µM); MIC [29]: 2 µg/mL (≈ 3.31 µM); MIC [30]: 1 µg/mL (≈ 1.65 µM); MIC [31]: 1 µg/mL (≈ 1.65 µM)
